Test results: patent US20060287247A1, “Halogen-substituted thienyl compounds” (priority 2001, published 2006)

How the values were obtained:
E. coli ATCC 25922 = test: NCCLS broth microdilution MIC; assay type: cell-based; conditions: D = E. coli ATCC 25922
Description: (§1) Compounds according to this invention were screened for their in vitro activities against selected species of bacteria and fungi. The minimal inhibition concentration (MIC) of these compounds was determined using the National Committee for Clinical Laboratory Standards (NCCLS) broth microdilution assay in microtiter plates, as set forth in: (1) the guidelines of the National Committee for Clinical Laboratory Standards (NCCLS) Document M7-A4 (NCCLS, 1997); (2) the guidelines of the National Committee for Clinical Laboratory Standards (NCCLS) Document M11-A4 (NCCLS, 1997); and (3) the guidelines and reference method of the National Committee for Clinical Laboratory Standards (NCCLS) Document M27-T (NCCLS, 1995). For antifungal essays, the method recommended in Murray, P R., 1995 Manual of Clinical Microbiology (ASM Press, Washington, D.C.), was employed. […]

E. faecalis ATCC 29212 = test: NCCLS broth microdilution MIC; assay type: cell-based, Enterococcus faecalis; conditions: B = E. faecalis ATCC 29212
Description: as §1

S. aureus ATCC 29213 = test: NCCLS broth microdilution MIC; assay type: cell-based, Staphylococcus aureus; conditions: A = S. aureus ATCC 29213
Description: as §1

C. albicans ATCC 38247 = test: NCCLS broth microdilution MIC (antifungal); assay type: cell-based; conditions: E = C. albicans ATCC 38247
Description: as §1

S. pneumoniae ATCC 49619 = test: NCCLS broth microdilution MIC; assay type: cell-based, Streptococcus pneumoniae; conditions: F = S. pneumoniae ATCC 49619
Description: as §1

B. cereus ATCC 11778 = test: NCCLS broth microdilution MIC; assay type: cell-based, Bacillus cereus; conditions: C = B. cereus ATCC 11778
Description: as §1

5′-AAAAAGCAAAAA-3′ = assay type: binding; conditions: DNA sequence 5′-AAAAAGCAAAAA-3′; pH 7.0, 22° C.
Description: (§2) A number of compounds according to this invention were screened for their ability to bind to three DNA sites, using DNase I footprinting. Generally, the procedure described in Dervan, WO 98/50582 (1998), was followed.
(§3) A plasmid was prepared by hybridizing two sets of 5′-phosphorylated complementary oligonucleotides, one set being
(§4) The target sites and their complements are identified in bold underline.
(§5) The resulting duplexes were ligated to the large pUC19 AvaI/SalI restriction fragment. The 3′-P32 end-labeled EcoRI/PvuII fragment was prepared by digesting the plasmid with EcoRI and PvuII with simultaneous fill-in using Sequenase v. 2.0, [alpha-P32]-deoxyadenosine-5′-triphosphate, and [alpha-P32]-thymidine-5′-triphosphate, and isolating the cloned fragment by nondenaturing gel electrophoresis. Standard methods were used for all DNA manipulations, including A and G sequencing. See, e.g., Maxam et al., Methods Enzymol., 1980, 65, 499-560; Iverson et al., Methods Enzymol., 1987, 15, 7823-7830; and Sambrook et al., 1989, Molecular Cloning, 2nd ed., Cold Spring Harbor Laboratory Press: Cold Spring Harbor, N.Y.
(§6) Quantitative DNase I footprint titration experiments were carried out as described previously (Dervan, WO 98/50582, 1998, “Dervan '582”) with the following changes. All reactions were carried out in a total volume of 400 μL, with polyamide stock solution or water added to 15,000 cpm radiolabeled restriction fragment affording final solution conditions of 10 mM Tris.HCl, 10 mM KCl, 10 mM MgCl2, 5 mM CaCl2, pH 7.0 and 0.01 nM, 0.1 nM, 1.0 nM, 10.0 nM polyamide or no polyamide for reference lanes. The polyamides were allowed to equilibrate at 22° C. for 16 hr. Footprinting reactions were initiated with addition of 10 μL of a DNase I stock solution (at the appropriate concentration to give ˜50% intact DNA) containing 1 mM DTT and allowed to proceed for 7 min at 22° C. The reactions were stopped, ethanol precipitated, resuspended in loading buffer, heat denatured, and placed on ice as described in Dervan '582. The reaction products were separated on a precast 8% polyacrylamide denaturing sequencing Castaway gel with 32 preformed wells from Stratagene in 1× TBE at 2000 V. Gels were dried according to the manufacturer's instructions and exposed to a storage phosphor screen (Molecular Dynamics). Quantitation and data analysis were carried out as described in Dervan '582.

5′-AAAAAGACAAAAA-3′ = assay type: binding; conditions: DNA sequence 5′-AAAAAGACAAAAA-3′; pH 7.0, 22° C.
Description: as §2, §3, §4, §5, §6

5′-AAAAAGTACAAAAA-3′ = assay type: binding; conditions: DNA sequence 5′-AAAAAGTACAAAAA-3′; pH 7.0, 22° C.
Description: as §2, §3, §4, §5, §6

Compound	Minimum Inhibitory Concentration (MIC) (E. coli ATCC 25922)	Minimum Inhibitory Concentration (MIC) (E. faecalis ATCC 29212)	Minimum Inhibitory Concentration (MIC) (S. aureus ATCC 29213)	Minimum Inhibitory Concentration (MIC) (C. albicans ATCC 38247)	Minimum Inhibitory Concentration (MIC) (S. pneumoniae ATCC 49619)	Minimum Inhibitory Concentration (MIC) (B. cereus ATCC 11778)	Equilibrium Association Constant (Ka) (5′-AAAAAGCAAAAA-3′)	Equilibrium Association Constant (Ka) (5′-AAAAAGACAAAAA-3′)	Equilibrium Association Constant (Ka) (5′-AAAAAGTACAAAAA-3′)
Cn1cc(NC(=O)c2cc(NC(=O)CCNC(=O)c3cc(NC(=O)c4cc(NC(=O)c5ccc(Br)s5)cn4C)cn3C)cn2C)cc1C(=O)NCCC(=O)NCCCCN [Id-17]	>32 µg/mL	++ (++ = MIC between 4 and 12)	+ (+ = MIC from 12 to 32, inclusive)	>32 µg/mL	+++ (+++ = MIC ≦4)	+++ (+++ = MIC ≦4)	≧1 × 10^11 M^−1	≧1 × 10^11 M^−1	≧1 × 10^11 M^−1
CCN(CC)CCCNC(=O)CCNC(=O)c1cc(NC(=O)c2cc(NC(=O)CCNC(=O)c3cc(NC(=O)c4cc(NC(=O)c5cc(Br)c(Br)s5)cn4C)cn3C)cn2C)cn1C [Id-6]	>32 µg/mL	+++ (+++ = MIC ≦4)	+++ (+++ = MIC ≦4)	>32 µg/mL	+++ (+++ = MIC ≦4)	+++ (+++ = MIC ≦4)	1e+10 M⁻¹	1e+10 M⁻¹	≧1 × 10^11 M^−1
Cn1cc(NC(=O)c2cc(NC(=O)CCNC(=O)c3cc(NC(=O)c4cc(NC(=O)c5ccc(Br)s5)cn4C)cn3C)cn2C)cc1C(=O)NCCC(=O)NCCCNC1CCCCC1 [Id-15]		+ (+ = MIC from 12 to 32, inclusive)	>32 µg/mL	>32 µg/mL	++ (++ = MIC between 4 and 12)	+ (+ = MIC from 12 to 32, inclusive)	5e+10 M⁻¹	5e+10 M⁻¹	≧1 × 10^11 M^−1
CC(C)N(CCNC(=O)CCNC(=O)c1cc(NC(=O)c2cc(NC(=O)CCNC(=O)c3cc(NC(=O)c4cc(NC(=O)c5ccc(Br)s5)cn4C)cn3C)cn2C)cn1C)C(C)C [Id-19]	>32 µg/mL	+++ (+++ = MIC ≦4)	>32 µg/mL	>32 µg/mL	+++ (+++ = MIC ≦4)	+++ (+++ = MIC ≦4)	5e+09 M⁻¹	5e+09 M⁻¹	≧1 × 10^11 M^−1
Cn1cc(NC(=O)c2cc(NC(=O)CCNC(=O)c3cc(NC(=O)c4cc(NC(=O)c5cc(Br)c(Br)s5)cn4C)cn3C)cn2C)cc1C(=O)NCCC(=O)NCC(C)(C)CN [Id-4]	>32 µg/mL	+++ (+++ = MIC ≦4)	+++ (+++ = MIC ≦4)	>32 µg/mL	+++ (+++ = MIC ≦4)	+++ (+++ = MIC ≦4)	5e+09 M⁻¹	1e+10 M⁻¹	5e+11 M⁻¹
Cn1cc(NC(=O)c2cc(NC(=O)CCNC(=O)c3cc(NC(=O)c4cc(NC(=O)c5cc(Br)c(Br)s5)cn4C)cn3C)cn2C)cc1C(=O)NCCC(=O)NCCN1CCCCC1 [Id-5]	>32 µg/mL	+++ (+++ = MIC ≦4)	+++ (+++ = MIC ≦4)	>32 µg/mL	+++ (+++ = MIC ≦4)	+++ (+++ = MIC ≦4)	2e+09 M⁻¹	2e+10 M⁻¹	1e+11 M⁻¹
CN(C)CC(C)(C)CNC(=O)CCNC(=O)c1cc(NC(=O)c2cc(NC(=O)CCNC(=O)c3cc(NC(=O)c4cc(NC(=O)c5cc(Br)c(Br)s5)cn4C)cn3C)cn2C)cn1C [Id-7]	>32 µg/mL	+++ (+++ = MIC ≦4)	+++ (+++ = MIC ≦4)	>32 µg/mL	+++ (+++ = MIC ≦4)	+++ (+++ = MIC ≦4)	5e+08 M⁻¹	5e+08 M⁻¹	≧1 × 10^11 M^−1
CCN(CC)CCNC(=O)CCNC(=O)c1cc(NC(=O)c2cc(NC(=O)CCNC(=O)c3cc(NC(=O)c4cc(NC(=O)c5ccc(Br)s5)cn4C)cn3C)cn2C)cn1C [Id-22]	>32 µg/mL	+++ (+++ = MIC ≦4)	>32 µg/mL	>32 µg/mL	+++ (+++ = MIC ≦4)	+++ (+++ = MIC ≦4)	2e+08 M⁻¹	2e+08 M⁻¹	≧1 × 10^11 M^−1
CN(C)CCCNC(=O)CCNC(=O)c1cc(NC(=O)c2cc(NC(=O)CCNC(=O)c3cc(NC(=O)c4cc(NC(=O)c5cc(Br)c(Br)s5)cn4C)cn3C)cn2C)cn1C [Id-1]	>32 µg/mL	+++ (+++ = MIC ≦4)	+++ (+++ = MIC ≦4)	>32 µg/mL	+++ (+++ = MIC ≦4)	+++ (+++ = MIC ≦4)	≧1 × 10^11 M^−1	≧1 × 10^11 M^−1	≧1 × 10^11 M^−1
